Measurements from ChEMBL document CHEMBL3627608, “Crystal structures of human RIP2 kinase catalytic domain complexed with ATP-competitive inhibitors: Foundations for understanding inhibitor selectivity” (Bioorg Med Chem, 2015).

Assays:
[1] = biological target: T1, Tyrosine-protein kinase ITK/TSK (Homo sapiens) (UniProt Q08881); experiment: Inhibition of ITK (unknown origin) at 10 uM after 120 mins P33 radiolabeled kinase activity assay
T1 sequence (whole entry): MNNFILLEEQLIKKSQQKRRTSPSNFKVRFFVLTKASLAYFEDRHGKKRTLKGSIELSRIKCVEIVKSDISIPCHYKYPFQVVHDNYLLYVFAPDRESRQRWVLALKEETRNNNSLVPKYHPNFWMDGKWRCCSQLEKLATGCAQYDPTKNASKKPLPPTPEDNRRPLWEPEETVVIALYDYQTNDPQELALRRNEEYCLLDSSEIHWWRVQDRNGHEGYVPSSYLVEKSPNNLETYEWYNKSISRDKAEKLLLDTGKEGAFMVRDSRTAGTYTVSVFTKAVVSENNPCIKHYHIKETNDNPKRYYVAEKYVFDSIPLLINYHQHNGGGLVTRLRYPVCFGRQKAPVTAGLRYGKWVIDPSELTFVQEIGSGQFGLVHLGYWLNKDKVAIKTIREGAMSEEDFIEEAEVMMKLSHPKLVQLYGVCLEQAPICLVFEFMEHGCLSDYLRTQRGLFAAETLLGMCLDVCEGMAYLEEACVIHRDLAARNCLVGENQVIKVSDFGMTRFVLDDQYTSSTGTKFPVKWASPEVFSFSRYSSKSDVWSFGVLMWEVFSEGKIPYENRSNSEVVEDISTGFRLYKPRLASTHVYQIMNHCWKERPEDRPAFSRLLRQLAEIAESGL

[2] = biological target: T2, Serine/threonine-protein kinase TAO1 (Homo sapiens) (UniProt Q7L7X3); experiment: Inhibition of TAOK1 (unknown origin) at 10 uM after 120 mins P33 radiolabeled kinase activity assay
T2 sequence (whole entry): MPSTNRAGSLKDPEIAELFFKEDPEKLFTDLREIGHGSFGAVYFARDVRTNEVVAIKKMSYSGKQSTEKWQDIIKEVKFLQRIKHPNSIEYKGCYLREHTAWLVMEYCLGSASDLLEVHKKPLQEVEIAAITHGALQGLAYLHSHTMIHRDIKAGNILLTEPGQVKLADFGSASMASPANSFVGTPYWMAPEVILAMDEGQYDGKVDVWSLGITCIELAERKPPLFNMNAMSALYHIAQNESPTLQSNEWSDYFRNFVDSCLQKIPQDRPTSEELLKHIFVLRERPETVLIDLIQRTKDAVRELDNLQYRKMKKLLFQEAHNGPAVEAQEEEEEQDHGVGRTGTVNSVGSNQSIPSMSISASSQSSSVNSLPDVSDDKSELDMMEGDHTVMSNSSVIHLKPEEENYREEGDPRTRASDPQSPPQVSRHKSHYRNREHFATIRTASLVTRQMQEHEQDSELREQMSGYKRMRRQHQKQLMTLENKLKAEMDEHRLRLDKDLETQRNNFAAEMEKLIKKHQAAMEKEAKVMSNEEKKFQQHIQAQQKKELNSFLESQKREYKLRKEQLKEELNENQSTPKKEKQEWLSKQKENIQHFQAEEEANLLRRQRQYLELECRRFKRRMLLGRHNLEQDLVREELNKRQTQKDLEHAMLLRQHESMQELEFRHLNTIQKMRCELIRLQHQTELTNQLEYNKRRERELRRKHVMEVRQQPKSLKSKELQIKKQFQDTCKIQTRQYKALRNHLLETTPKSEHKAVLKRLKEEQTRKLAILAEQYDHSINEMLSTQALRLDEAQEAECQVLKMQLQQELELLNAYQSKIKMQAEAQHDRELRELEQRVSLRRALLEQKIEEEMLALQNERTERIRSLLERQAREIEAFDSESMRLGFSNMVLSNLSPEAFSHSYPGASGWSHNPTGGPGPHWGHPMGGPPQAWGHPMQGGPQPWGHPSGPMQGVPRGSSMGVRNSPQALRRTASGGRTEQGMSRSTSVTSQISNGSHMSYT

[3] = biological target: Macrophage-stimulating protein receptor (Homo sapiens) (UniProt Q04912); experiment: Inhibition of RON (unknown origin) at 10 uM after 120 mins P33 radiolabeled kinase activity assay
Sequence of Macrophage-stimulating protein receptor (Homo sapiens) (Q04912 25-304 limits assumed): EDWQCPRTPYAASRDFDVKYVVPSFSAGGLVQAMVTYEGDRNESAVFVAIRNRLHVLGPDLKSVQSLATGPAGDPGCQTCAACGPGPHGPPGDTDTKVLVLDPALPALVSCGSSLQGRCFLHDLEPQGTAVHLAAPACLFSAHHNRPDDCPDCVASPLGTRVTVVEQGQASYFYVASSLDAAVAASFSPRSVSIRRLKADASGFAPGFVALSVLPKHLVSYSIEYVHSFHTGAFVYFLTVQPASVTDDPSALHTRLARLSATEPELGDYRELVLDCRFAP
Sequence of Macrophage-stimulating protein receptor (Homo sapiens) (Q04912 310-1400 limits assumed): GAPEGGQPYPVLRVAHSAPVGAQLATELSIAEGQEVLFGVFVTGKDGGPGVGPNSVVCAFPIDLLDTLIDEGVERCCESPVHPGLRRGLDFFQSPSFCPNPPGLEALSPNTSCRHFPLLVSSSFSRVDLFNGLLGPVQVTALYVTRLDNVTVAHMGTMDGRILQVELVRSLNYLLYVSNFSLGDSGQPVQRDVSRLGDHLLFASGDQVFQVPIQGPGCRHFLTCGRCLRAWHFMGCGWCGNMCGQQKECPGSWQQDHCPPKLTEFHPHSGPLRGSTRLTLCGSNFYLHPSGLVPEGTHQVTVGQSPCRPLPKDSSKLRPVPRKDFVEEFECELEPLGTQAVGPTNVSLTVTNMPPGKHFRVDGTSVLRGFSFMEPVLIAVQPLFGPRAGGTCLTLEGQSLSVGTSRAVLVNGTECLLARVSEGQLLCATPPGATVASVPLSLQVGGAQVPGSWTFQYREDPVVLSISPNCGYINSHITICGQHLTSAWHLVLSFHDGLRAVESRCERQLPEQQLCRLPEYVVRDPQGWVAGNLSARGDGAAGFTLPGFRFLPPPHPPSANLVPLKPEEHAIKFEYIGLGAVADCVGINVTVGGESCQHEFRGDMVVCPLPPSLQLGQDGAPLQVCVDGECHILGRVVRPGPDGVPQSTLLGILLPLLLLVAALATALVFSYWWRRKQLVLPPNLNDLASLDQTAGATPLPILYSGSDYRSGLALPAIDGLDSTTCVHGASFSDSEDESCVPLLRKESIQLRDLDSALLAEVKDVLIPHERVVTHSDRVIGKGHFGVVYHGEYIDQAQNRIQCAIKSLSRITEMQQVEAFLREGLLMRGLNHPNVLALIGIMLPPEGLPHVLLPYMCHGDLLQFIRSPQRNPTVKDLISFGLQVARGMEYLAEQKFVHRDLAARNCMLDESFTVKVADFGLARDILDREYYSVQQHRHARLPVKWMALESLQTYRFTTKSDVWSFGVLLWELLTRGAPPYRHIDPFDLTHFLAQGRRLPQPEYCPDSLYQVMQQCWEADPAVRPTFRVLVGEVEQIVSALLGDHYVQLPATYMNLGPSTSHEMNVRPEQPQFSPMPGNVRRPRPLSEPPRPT

[4] = biological target: Epidermal growth factor receptor (Homo sapiens) (UniProt P00533); experiment: Inhibition of EGFR (unknown origin) at 10 uM after 120 mins P33 radiolabeled kinase activity assay
Sequence of Epidermal growth factor receptor (Homo sapiens) (P00533 whole entry): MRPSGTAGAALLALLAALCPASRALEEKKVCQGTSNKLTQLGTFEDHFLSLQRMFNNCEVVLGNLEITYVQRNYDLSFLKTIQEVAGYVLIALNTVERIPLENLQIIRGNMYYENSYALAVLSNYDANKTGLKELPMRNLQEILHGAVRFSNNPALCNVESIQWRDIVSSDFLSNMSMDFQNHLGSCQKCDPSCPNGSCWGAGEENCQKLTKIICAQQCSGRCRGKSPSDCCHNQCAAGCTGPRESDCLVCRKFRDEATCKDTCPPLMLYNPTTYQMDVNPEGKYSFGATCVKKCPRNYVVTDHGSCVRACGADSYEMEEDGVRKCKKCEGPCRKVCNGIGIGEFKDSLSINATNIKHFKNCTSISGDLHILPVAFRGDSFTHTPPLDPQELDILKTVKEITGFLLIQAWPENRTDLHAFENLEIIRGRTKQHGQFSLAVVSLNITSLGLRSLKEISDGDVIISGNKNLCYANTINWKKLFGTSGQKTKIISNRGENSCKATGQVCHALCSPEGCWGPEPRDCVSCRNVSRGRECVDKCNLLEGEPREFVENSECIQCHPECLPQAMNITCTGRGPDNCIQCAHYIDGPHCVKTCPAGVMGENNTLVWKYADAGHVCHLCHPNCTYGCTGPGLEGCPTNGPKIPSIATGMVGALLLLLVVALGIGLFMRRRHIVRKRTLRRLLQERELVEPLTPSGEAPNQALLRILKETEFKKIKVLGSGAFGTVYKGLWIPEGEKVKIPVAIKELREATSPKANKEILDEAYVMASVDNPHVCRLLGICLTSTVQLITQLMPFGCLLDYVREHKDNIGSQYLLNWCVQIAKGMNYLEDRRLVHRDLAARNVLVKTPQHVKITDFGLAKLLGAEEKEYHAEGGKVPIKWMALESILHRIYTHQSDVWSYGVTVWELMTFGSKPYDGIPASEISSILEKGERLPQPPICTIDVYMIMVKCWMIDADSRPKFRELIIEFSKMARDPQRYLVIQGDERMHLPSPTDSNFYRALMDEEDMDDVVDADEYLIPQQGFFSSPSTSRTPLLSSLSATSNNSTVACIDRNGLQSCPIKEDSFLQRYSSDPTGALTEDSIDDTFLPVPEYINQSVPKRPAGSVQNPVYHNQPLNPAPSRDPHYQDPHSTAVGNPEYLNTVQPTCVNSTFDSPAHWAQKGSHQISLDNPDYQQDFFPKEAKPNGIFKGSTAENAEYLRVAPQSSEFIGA

[5] = biological target: Serine/threonine-protein kinase PAK 2 (Homo sapiens) (UniProt Q13177); experiment: Inhibition of PAK2 (unknown origin) at 10 uM after 120 mins P33 radiolabeled kinase activity assay
Sequence of Serine/threonine-protein kinase PAK 2 (Homo sapiens) (Q13177 whole entry): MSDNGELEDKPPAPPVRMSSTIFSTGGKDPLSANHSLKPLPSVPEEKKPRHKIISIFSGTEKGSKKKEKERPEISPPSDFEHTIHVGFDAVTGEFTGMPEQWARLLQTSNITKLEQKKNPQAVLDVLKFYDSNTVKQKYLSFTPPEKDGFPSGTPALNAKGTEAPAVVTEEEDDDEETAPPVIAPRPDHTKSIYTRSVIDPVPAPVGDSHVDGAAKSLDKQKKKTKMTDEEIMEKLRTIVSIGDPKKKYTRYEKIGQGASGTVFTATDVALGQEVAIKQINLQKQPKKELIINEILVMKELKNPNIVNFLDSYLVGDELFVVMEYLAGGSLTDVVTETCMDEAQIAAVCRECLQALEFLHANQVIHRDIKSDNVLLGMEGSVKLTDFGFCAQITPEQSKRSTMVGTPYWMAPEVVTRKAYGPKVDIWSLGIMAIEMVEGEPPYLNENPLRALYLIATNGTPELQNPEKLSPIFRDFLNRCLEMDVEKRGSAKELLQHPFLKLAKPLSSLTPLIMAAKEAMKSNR

[6] = biological target: T3, Tyrosine-protein kinase receptor TYRO3 (Homo sapiens) (UniProt Q06418); experiment: Inhibition of TYRO3 (unknown origin) at 10 uM after 120 mins P33 radiolabeled kinase activity assay
T3 sequence (whole entry): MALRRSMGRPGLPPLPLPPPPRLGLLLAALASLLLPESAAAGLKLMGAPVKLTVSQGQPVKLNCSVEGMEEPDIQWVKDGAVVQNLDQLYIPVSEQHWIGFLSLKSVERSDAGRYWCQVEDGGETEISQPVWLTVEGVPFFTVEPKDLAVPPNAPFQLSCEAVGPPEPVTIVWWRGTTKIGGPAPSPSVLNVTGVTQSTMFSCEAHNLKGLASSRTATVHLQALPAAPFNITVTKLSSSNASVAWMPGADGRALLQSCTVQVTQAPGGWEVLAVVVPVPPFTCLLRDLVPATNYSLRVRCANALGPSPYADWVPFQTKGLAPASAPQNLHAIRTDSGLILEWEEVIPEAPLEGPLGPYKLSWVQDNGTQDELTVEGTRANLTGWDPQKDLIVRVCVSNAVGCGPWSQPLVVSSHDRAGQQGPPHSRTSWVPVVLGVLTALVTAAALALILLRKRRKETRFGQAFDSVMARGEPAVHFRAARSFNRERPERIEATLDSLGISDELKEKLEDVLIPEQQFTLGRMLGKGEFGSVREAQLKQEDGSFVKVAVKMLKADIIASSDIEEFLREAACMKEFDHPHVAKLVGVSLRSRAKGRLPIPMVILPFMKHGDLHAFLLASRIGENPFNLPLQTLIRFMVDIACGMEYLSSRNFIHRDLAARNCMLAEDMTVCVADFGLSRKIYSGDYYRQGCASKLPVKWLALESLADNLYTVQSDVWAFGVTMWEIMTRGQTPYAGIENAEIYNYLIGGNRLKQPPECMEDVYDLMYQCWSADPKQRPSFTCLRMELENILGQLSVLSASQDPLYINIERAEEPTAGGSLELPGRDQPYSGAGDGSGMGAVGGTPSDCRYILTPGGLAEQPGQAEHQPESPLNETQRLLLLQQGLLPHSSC

[7] = biological target: Fibroblast growth factor receptor 4 (Homo sapiens) (UniProt P22455); experiment: Inhibition of FGFR4 (unknown origin) at 10 uM after 120 mins P33 radiolabeled kinase activity assay
Sequence of Fibroblast growth factor receptor 4 (Homo sapiens) (P22455 22-802 limits assumed): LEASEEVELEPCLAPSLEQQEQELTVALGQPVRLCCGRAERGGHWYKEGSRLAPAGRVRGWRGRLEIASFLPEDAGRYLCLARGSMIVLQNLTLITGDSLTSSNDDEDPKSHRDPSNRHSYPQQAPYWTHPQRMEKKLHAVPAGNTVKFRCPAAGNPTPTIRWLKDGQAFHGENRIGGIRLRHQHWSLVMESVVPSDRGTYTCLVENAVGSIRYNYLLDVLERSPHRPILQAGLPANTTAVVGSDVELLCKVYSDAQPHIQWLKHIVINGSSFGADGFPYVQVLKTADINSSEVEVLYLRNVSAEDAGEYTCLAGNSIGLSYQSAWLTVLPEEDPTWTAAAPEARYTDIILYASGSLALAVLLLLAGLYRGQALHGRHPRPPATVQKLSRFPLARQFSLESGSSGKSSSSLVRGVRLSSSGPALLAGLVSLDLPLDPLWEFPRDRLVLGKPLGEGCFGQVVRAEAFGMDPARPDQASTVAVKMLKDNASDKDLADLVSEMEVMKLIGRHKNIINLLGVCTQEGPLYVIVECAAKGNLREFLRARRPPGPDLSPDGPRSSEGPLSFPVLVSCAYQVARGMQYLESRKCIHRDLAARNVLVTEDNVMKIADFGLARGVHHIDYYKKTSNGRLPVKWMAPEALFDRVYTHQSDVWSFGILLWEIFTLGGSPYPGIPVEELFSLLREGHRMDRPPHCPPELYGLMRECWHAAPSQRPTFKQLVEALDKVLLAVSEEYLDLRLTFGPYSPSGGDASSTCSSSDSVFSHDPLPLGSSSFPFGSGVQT

[8] = biological target: Protein kinase C eta type (Homo sapiens) (UniProt P24723); experiment: Inhibition of PKCeta (unknown origin) at 10 uM after 120 mins P33 radiolabeled kinase activity assay
Sequence of Protein kinase C eta type (Homo sapiens) (P24723 whole entry): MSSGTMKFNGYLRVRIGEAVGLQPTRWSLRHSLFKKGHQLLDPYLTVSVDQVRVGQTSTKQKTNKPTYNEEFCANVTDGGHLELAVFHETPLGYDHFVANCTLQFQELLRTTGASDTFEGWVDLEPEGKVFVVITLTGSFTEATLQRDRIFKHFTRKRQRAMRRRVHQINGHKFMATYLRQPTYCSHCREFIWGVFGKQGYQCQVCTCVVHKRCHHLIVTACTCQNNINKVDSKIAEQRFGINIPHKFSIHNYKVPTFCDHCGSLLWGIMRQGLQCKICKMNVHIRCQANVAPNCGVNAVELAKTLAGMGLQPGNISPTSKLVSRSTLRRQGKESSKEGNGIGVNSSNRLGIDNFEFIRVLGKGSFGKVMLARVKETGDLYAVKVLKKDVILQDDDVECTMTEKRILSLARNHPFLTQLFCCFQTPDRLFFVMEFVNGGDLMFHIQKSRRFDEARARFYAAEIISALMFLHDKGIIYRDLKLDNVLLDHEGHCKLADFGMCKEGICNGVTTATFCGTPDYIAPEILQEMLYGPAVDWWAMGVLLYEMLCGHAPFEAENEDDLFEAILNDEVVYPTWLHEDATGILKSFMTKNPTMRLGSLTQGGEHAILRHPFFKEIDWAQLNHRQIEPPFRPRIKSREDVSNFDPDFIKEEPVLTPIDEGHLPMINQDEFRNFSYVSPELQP

inhibition [1] [%] | inhibition [2] [%] | inhibition [3] [%] | inhibition [4] [%] | inhibition [5] [%] | inhibition [6] [%] | inhibition [7] [%] | inhibition [8] [%] | SMILES
96.8 | 43.6 | 18.7 | 88 | 15.8 | 79.5 | 47.3 | -5.94 | CS(=O)(=O)c1cccc(Nc2nccc(-c3sc(N4CCOCC4)nc3-c3cccc(NS(=O)(=O)c4c(F)cccc4F)c3)n2)c1
15.1 | 1.85 | 1.69 | 7.68 | 6.88 | 12.8 | 3.75 | 0.75 | COCCNC(=O)c1ccc2c(c1)nc(-c1cnc(-c3ccc(Cl)cc3)[nH]1)n2CCOC
15.4 | 90.4 | 70.6 | 6.23 | 9.28 | 60.7 | 73.3 | -2.64 | CC(C)(C)c1cc(NC(=O)Nc2ccc(Oc3ccncc3)cc2)no1
